29 compounds from patent US20220073536A1 (Rigel Pharmaceuticals, Inc., priority 2003, published 2022) can be followed below.

Structures can show the parent of a compound that is named as a salt.

For one assay, the system named is cultured human mast cells (CHMC). Kind of assay: CHMC low cell density IgE activation: tryptase assay. It is filed as cell-based. To be noted: Homo sapiens, Mast cell, low cell density CHMC, IgE activation, tryptase release, 8 pt; read-out: LD Tryptase, CHMC, IgE, 8 pt. Put shortly: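 Tryptase release, fluorogenic substrate, 30 min RT. Prior anti-IgE stimulation of CHMC, 30 min, 37 °C, after 1 hr preincubation at 1000–1500 cells/well in MT; unstimulated wells received MT.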
Turning to `Cn1nc(N)c2cc(Nc3ncc(F)c(Nc4ccc5c(c4)NC(=O)C(C)(C)O5)n3)ccc21` [Compound 806, N2-(3-Amino-1-methylindazol-5-yl)-N4-(2,2-dimethyl-3-oxo-4H-benz[1,4]oxazin-6-yl)-5-fluoro-2,4-pyrimidinediamine], the IC50 is less than 10 µM.
Same read-out and setting: in the case of `CC(=O)NCCCn1ncc2cc(Nc3ncc(F)c(Nc4ccc(Cl)c(Cl)c4)n3)ccc21` [Compound 820, N2-[1-[3-(N-Acetylamino)propyl]indazol-5-yl]-N4-(3,4-dichlorophenyl)-5-fluoro-2,4-pyrimidinediamine] it was less than 10 µM.
Still for that read-out and setting: the result for `CC(=O)NCCCn1ncc2cc(Nc3ncc(F)c(Nc4ccc5c(c4)NC(=O)C(C)(C)O5)n3)ccc21` [Compound 821, N2-[1-[3-(N-Acetylamino)propyl]indazol-5-yl]-N4-(2,2-dimethyl-3-oxo-4H-benz[1,4]oxazin-6-yl)-5-fluoro-2,4-pyrimidinediamine] reads less than 10 µM.
Still for that read-out and setting: in the case of `CC(=O)NCCCn1ncc2cc(Nc3ncc(F)c(Nc4ccc5c(n4)NC(=O)C(C)(C)O5)n3)ccc21` [Compound 822, N2-[1-[3-(N-Acetylamino)propyl]indazol-5-yl]-N4-(2,2-dimethyl-3-oxo-4H-5-pyrid[1,4]oxazin-6-yl)-5-fluoro-2,4-pyrimidinediamine] it was less than 10 µM; in that of `COc1ccc(Nc2nc(Nc3ccc4c(cnn4CCCN)c3)ncc2F)cc1Cl` [Compound 823, N2-[1-(3-Aminopropyl)indazol-5-yl]-N4-(3-chloro-4-methoxyphenyl)-5-fluoro-2,4-pyrimidinediamine], less than 10 µM; in that of `NCCCn1ncc2cc(Nc3ncc(F)c(Nc4ccc(Cl)c(Cl)c4)n3)ccc21` [Compound 824, N2-[1-(3-Aminopropyl)indazol-5-yl]-N4-(3,4-dichlorophenyl)-5-fluoro-2,4-pyrimidinediamine], less than 10 µM.
On to `CC1(C)Oc2ccc(Nc3nc(Nc4ccc5c(cnn5CCCN)c4)ncc3F)cc2NC1=O` [Compound 825, N2-[1-(3-Aminopropyl)indazol-5-yl]-N4-(2,2-dimethyl-3-oxo-4H-benz[1,4]oxazin-6-yl)-5-fluoro-2,4-pyrimidinediamine], for which the IC50 was less than 10 µM.
Still for that read-out and setting: the result for `C[C@@H]1Oc2ccc(Nc3nc(Nc4ccc5c(cnn5CCCN)c4)ncc3F)cc2NC1=O` [Compound 826, (S)-N2-[1-(3-Aminopropyl)indazol-5-yl]-5-fluoro-N4-(2-methyl-3-oxo-2H,4H-benz[1,4]oxazin-6-yl)-2,4-pyrimidinediamine] reads less than 10 µM.
On the same count and under the same terms, the result for `COc1ccc(Nc2nc(Nc3ccc4c(cnn4CCCO)c3)ncc2F)cc1Cl` [Compound 828, N4-(3-Chloro-4-methoxyphenyl)-5-fluoro-N2-[1-(3-hydroxypropyl)indazol-5-yl]-2,4-pyrimidinediamine Bis p-Toluenesulfonic Acid Salt] reads less than 10 µM; that for `COc1ccc(Nc2nc(Nc3ccc4c(cnn4CCCNS(=O)(=O)C(F)(F)F)c3)ncc2F)cc1Cl` [Compound 840, N4-(3-Chloro-4-methoxyphenyl)-5-fluoro-N2-[1-[3-(N-trifluoromethylsulfonylamino)propyl]indazol-5-yl]-2,4-pyrimidinediamine], less than 10 µM; that for `O=S(=O)(NCCCn1ncc2cc(Nc3ncc(F)c(Nc4ccc(Cl)c(Cl)c4)n3)ccc21)C(F)(F)F` [Compound 841, N4-(3,4-Dichlorophenyl)-5-fluoro-N2-[1-[3-(N-trifluoromethylsulfonylamino)propyl]indazol-5-yl]-2,4-pyrimidinediamine], less than 10 µM.
The same measure, in the same setting: the result for `CC1(C)Oc2ccc(Nc3nc(Nc4ccc5c(cnn5CCCNS(=O)(=O)C(F)(F)F)c4)ncc3F)cc2NC1=O` [Compound 842, N4-(2,2-Dimethyl-3-oxo-4H-benz[1,4]oxazin-6-yl)-5-fluoro-N2-[1-[3-(N-trifluoromethylsulfonylamino)propyl]indazol-5-yl]-2,4-pyrimidinediamine] reads less than 10 µM.
`C[C@@H]1Oc2ccc(Nc3nc(Nc4ccc5c(cnn5CCCNS(=O)(=O)C(F)(F)F)c4)ncc3F)cc2NC1=O` [Compound 843, (S)-5-Fluoro-N4-(2-methyl-3-oxo-2H,4H-benz[1,4]oxazin-6-yl)-N2-[1-[3-(N-trifluoromethylsulfonylamino)propyl]indazol-5-yl]-2,4-pyrimidinediamine]: the IC50 was less than 10 µM.
For the compound `COc1ccc(Nc2nc(Nc3ccc4c(cnn4CCCNC(=O)C(C)(C)C)c3)ncc2F)cc1Cl` [Compound 848, N4-(3-Chloro-4-methoxyphenyl)-5-fluoro-N2-[1-(3-pivalamidopropyl)indazol-5-yl]-2,4-pyrimidinediamine], the IC50 was less than 10 µM.
On the same count and under the same terms, in the case of `CC(C)(C)C(=O)NCCCn1ncc2cc(Nc3ncc(F)c(Nc4ccc(Cl)c(Cl)c4)n3)ccc21` [Compound 849, N4-(3,4-Dichlorophenyl)-5-fluoro-N2-[1-(3-pivalamidopropyl)indazol-5-yl]-2,4-pyrimidinediamine] it was less than 10 µM; in that of `CC(C)(C)C(=O)NCCCn1ncc2cc(Nc3ncc(F)c(Nc4ccc5c(c4)NC(=O)C(C)(C)O5)n3)ccc21` [Compound 850, N4-(2,2-Dimethyl-3-oxo-4H-benz[1,4]oxazin-6-yl)-5-fluoro-N2-[1-(3-pivalamidopropyl)indazol-5-yl]-2,4-pyrimidinediamine], less than 10 µM.
Same read-out and setting: the result for `C[C@@H]1Oc2ccc(Nc3nc(Nc4ccc5c(cnn5CCCNC(=O)C(C)(C)C)c4)ncc3F)cc2NC1=O` [Compound 851, 5-Fluoro-(S)-N4-(2-methyl-3-oxo-4H-benz[1,4]oxazin-6-yl)-N2-[1-(3-pivalamidopropyl)indazol-5-yl]-2,4-pyrimidinediamine] reads less than 10 µM.

The assay is the same for the next values; noted with them: low cell density CHMC, IgE activation, tryptase release, 3 pt; read-out: LD Tryptase, CHMC, IgE, 3 pt.
In the case of `Cn1nc(N)c2cc(Nc3ncc(F)c(Nc4ccc5c(n4)NC(=O)C(C)(C)O5)n3)ccc21` [Compound 837, N2-(3-Amino-1-methylindazol-5-yl)-N4-(2,2-dimethyl-3-oxo-4H-5-pyrid[1,4]oxazin-6-yl)-5-fluoro-2,4-pyrimidinediamine], the IC50 is less than 10 µM.
Same read-out and setting: the result for `CC1(C)Oc2ccc(Nc3nc(Nc4ccc5c(cnn5CCCO)c4)ncc3F)nc2NC1=O` [Compound 838, N4-(2,2-Dimethyl-3-oxo-4H-5-pyrid[1,4]oxazin-6-yl)-5-fluoro-N2-[1-(3-hydroxypropyl)indazol-5-yl]-2,4-pyrimidinediamine] reads less than 10 µM.
Still for that read-out and setting: in the case of `COCCCn1ncc2ccc(Nc3ncc(F)c(Nc4ccc5c(n4)NC(=O)C(C)(C)O5)n3)cc21` [Compound 839, N4-(2,2-Dimethyl-3-oxo-4H-5-pyrid[1,4]oxazin-6-yl)-5-fluoro-N2-[1-(3-methoxypropyl)indazol-6-yl]-2,4-pyrimidinediamine] it was less than 10 µM.

Still in this assay, the particulars now being: low cell density CHMC, IgE activation, tryptase release, 8 pt; read-out: LD Tryptase, CHMC, IgE, 8 pt.
Turning to `Cc1nn(C)c2cc(Nc3ncc(F)c(Nc4ccc5c(n4)NC(=O)C(C)(C)O5)n3)ccc12` [Compound 812, N2-(1,3-Dimethylindazol-6-yl)-N4-(2,2-dimethyl-3-oxo-4H-5-pyrid[1,4]oxazin-6-yl)-5-fluoro-2,4-pyrimidinediamine], the IC50 was less than 10 µM.
On the same count and under the same terms, in the case of `Cc1n[nH]c2cc(Nc3ncc(F)c(Nc4ccc5c(n4)NC(=O)C(C)(C)O5)n3)ccc12` [Compound 813, N4-(2,2-Dimethyl-3-oxo-4H-5-pyrid[1,4]oxazin-6-yl)-5-fluoro-N2-(3-methyl-1H-indazol-6-yl)-2,4-pyrimidinediamine] it was less than 10 µM; in that of `COCCCn1ncc2cc(Nc3ncc(F)c(Nc4ccc5c(n4)NC(=O)C(C)(C)O5)n3)ccc21` [Compound 814, N4-(2,2-Dimethyl-3-oxo-4H-5-pyrid[1,4]oxazin-6-yl)-5-fluoro-N2-[1-(3-methoxypropyl)indazol-5-yl]-2,4-pyrimidinediamine], less than 10 µM; in that of `COc1ccc(Nc2nc(Nc3ccc4c(cnn4CCCN4C(=O)c5ccccc5C4=O)c3)ncc2F)cc1Cl` [Compound 815, N4-(3-Chloro-4-methoxyphenyl)-5-fluoro-N2-[1-[3-(N-phthalimidopropyl)]indazol-5-yl]-2,4-pyrimidinediamine], less than 10 µM.
On the same count and under the same terms, in the case of `O=C1c2ccccc2C(=O)N1CCCn1ncc2cc(Nc3ncc(F)c(Nc4ccc(Cl)c(Cl)c4)n3)ccc21` [Compound 816, N4-(3,4-Dichlorophenyl)-5-fluoro-N2-[1-[3-(N-phthalimidopropyl)]indazol-5-yl]-2,4-pyrimidinediamine] it was more than 10 µM.
As to `CC1(C)Oc2ccc(Nc3nc(Nc4ccc5c(cnn5CCCN5C(=O)c6ccccc6C5=O)c4)ncc3F)cc2NC1=O` [Compound 817, N4-(2,2-Dimethyl-3-oxo-4H-benz[1,4]oxazin-6-yl)-5-fluoro-N2-[1-[3-(N-phthalimidopropyl)]indazol-5-yl]-2,4-pyrimidinediamine], the IC50 was less than 10 µM.
Take `C[C@@H]1Oc2ccc(Nc3nc(Nc4ccc5c(cnn5CCCN5C(=O)c6ccccc6C5=O)c4)ncc3F)cc2NC1=O` [Compound 818, (S)-5-Fluoro-N4-(2-methyl-3-oxo-2H,4H-benz[1,4]oxazin-6-yl)-N2-[1-[3-(N-phthalimidopropyl)]indazol-5-yl]-2,4-pyrimidinediamine]: the IC50 is less than 10 µM.
On the same count and under the same terms, the result for `Cn1nc(N)c2cc(Nc3ncc(F)c(Nc4ccc5c(n4)NC(=O)C(C)(C)O5)n3)ccc21` [Compound 837, N2-(3-Amino-1-methylindazol-5-yl)-N4-(2,2-dimethyl-3-oxo-4H-5-pyrid[1,4]oxazin-6-yl)-5-fluoro-2,4-pyrimidinediamine] reads less than 10 µM.
Same read-out and setting: in the case of `CC1(C)Oc2ccc(Nc3nc(Nc4ccc5c(cnn5CCCO)c4)ncc3F)nc2NC1=O` [Compound 838, N4-(2,2-Dimethyl-3-oxo-4H-5-pyrid[1,4]oxazin-6-yl)-5-fluoro-N2-[1-(3-hydroxypropyl)indazol-5-yl]-2,4-pyrimidinediamine] it was less than 10 µM; in that of `COCCCn1ncc2ccc(Nc3ncc(F)c(Nc4ccc5c(n4)NC(=O)C(C)(C)O5)n3)cc21` [Compound 839, N4-(2,2-Dimethyl-3-oxo-4H-5-pyrid[1,4]oxazin-6-yl)-5-fluoro-N2-[1-(3-methoxypropyl)indazol-6-yl]-2,4-pyrimidinediamine], less than 10 µM.
Same read-out and setting: the result for `CC1(C)Oc2ccc(Nc3nc(Nc4ccc5c(cnn5CCCNS(=O)(=O)C(F)(F)F)c4)ncc3F)nc2NC1=O` [Compound 844, N4-(2,2-Dimethyl-3-oxo-4H-5-pyrid[1,4]oxazin-6-yl)-5-fluoro-N2-[1-[3-(N-trifluoromethylsulfonylamino)propyl]indazol-5-yl]-2,4-pyrimidinediamine] reads more than 10 µM.
On to `CCOP(=O)(NCCCn1ncc2cc(Nc3ncc(F)c(Nc4ccc(OC)c(Cl)c4)n3)ccc21)OCC` [Compound 847, N4-(3-Chloro-4-methoxyphenyl)-N2-[1-(3-(diethylphosphonamido)propyl]indazol-5-yl]-5-fluoro-2,4-pyrimidinediamine], for which the IC50 was less than 10 µM.
